Data on four molecules can be found in patent US10023568B2, “Naphthyridine derivatives useful as αvβ6 integrin antagonists” (GlaxoSmithKline Intellectual Property Development Limited, priority 2013, dated 2018).

≈ marks a conversion by molar mass, not a printed value.

The target in series [1] is T1, αvβ3 (Homo sapiens, UniProt P05106+P06756).
T1 construct: expressed in transfected cells; host or cells: K562-αvβ3
Description: Cell Adhesion Assay K562-αvβ3 (LAP-b1). It is filed as cell-based. The settings on record: K562-αvβ3 cells, ligand LAP-b1, 2 mM MgCl2; read-out: affinity in the cell Adhesion Assays αvβ3 pIC50 (converted). On the procedure:
(§1) The following cell lines were used, with ligands in brackets: K562-α5β1 (Fibronectin), K562-αvβ3 (LAP-b1), K562-αvβ5 (Vitronectin), K562-αvβ6 (LAP-b1), K562-αvβ8 (LAP-b1). The divalent cation used to facilitate adhesion was 2 mM MgCl2. Adhesion was quantified by cell labelling with the fluorescent dye BCECF-AM (Life Technologies), where cell suspensions at 6×10^6 cells/mL were incubated with […] of 30 mM BCECF-AM at 37° C. for 10 minutes, before dispensing into the assay plate. At the assay conclusion cells that adhered were lysed using 50 μL/well of 0.5% Triton X-100 in H2O to release fluorescence. Fluorescence intensity was detected using an Envision® plate reader (Perkin Elmer). For active antagonists in the assay, data were fitted to a 4 parameter logistic equation for IC50 determinations.

Series [2] concerns the target T2, αvβ5 (Homo sapiens, UniProt P06756+P18084).
T2 construct: expressed in transfected cells; host or cells: K562-αvβ5
Description: Cell Adhesion Assay K562-αvβ5 (Vitronectin). The following applies: K562-αvβ5 cells, ligand Vitronectin, 2 mM MgCl2; read-out: affinity in the cell Adhesion Assays αvβ5 pIC50 (converted). It counts as cell-based. As for the experimental part:
as §1

The target of series [3] is T3, human soluble αvβ6 protein (Homo sapiens, UniProt P06756+P18564).
T3 construct: The expressed protein contained amino acid 31-987 of αv followed by a Tev cleavage site; Tev cleavage site (C); 6His tag (C); Prescission protease site (C); FLAG tag (C); made in house; host or cells: baculovirus expression system (pFastBac dual construct)
As to the kind of experiment: Fluorescence Polarisation Assay, binding of human soluble αvβ6 protein to an RGD-containing peptide. The settings on record: read-out: affinity (pIC50) for the human αvβ6 protein in the Fluorescence Polarisation Assay (converted). The text has this:
Binding of human soluble αvβ6 protein to an RGD-containing Peptide by Fluorescence Polarisation Assay:
The extracellular domains of αv and β6 were co-expressed from a pFastBac dual construct using the baculovirus expression system. […] The protein was secreted into the media on expression; it was purified using diafiltration followed by purification using the His tag followed by the FLAG tag and then size exclusion chromatography. […] A fluorescent binding peptide based on LAPβ3 was synthesised chemically, having the sequence Ac-[…](Cy3B)-NH2. An assay buffer of 25 mM HEPES pH7.4, 150 mM NaCl, 1 mM CHAPS and […] was used. To black low volume 384 well plates were added […] of test compound in 100% DMSO, followed by […] αvβ6 protein. Plates were incubated at room temperature for 15 minutes before addition of […] fluorescent RGD-containing peptide. […] For active antagonists in the assay, data were fitted to a 4 parameter logistic equation for IC50 determinations.
For orientation: Polarisation of emitted light reports the rotation of a fluorescent probe.

Series [4] is described as follows: physchem. The settings on record: kinetic from dmso stock. On the procedure:
The Chemiluminescent nitrogen detection (CLND) kinetic solubility was measured according to N. Bhattachar et. al. J. Pharm. Biomed.

In series [5] the target is T4, αvβ8 (Homo sapiens, UniProt P06756+P26012).
T4 construct: expressed in transfected cells; host or cells: K562-αvβ8
Description: Cell Adhesion Assay K562-αvβ8 (LAP-b1). It counts as cell-based. The settings on record: K562-αvβ8 cells, ligand LAP-b1, 2 mM MgCl2; read-out: affinity in the cell Adhesion Assays αvβ8 pIC50 (converted). As for the experimental part:
as §1

Series [6] deals with T5, αvβ6 (Homo sapiens, UniProt P06756+P18564).
T5 construct: expressed in transfected cells; host or cells: K562-αvβ6
Description: Cell Adhesion Assay K562-αvβ6 (LAP-b1). It counts as cell-based. The following applies: K562-αvβ6 cells, ligand LAP-b1, 2 mM MgCl2; read-out: affinity in the cell Adhesion Assays αvβ6 pIC50 (converted). On the procedure:
as §1

T1 sequence (P06756 31-1048): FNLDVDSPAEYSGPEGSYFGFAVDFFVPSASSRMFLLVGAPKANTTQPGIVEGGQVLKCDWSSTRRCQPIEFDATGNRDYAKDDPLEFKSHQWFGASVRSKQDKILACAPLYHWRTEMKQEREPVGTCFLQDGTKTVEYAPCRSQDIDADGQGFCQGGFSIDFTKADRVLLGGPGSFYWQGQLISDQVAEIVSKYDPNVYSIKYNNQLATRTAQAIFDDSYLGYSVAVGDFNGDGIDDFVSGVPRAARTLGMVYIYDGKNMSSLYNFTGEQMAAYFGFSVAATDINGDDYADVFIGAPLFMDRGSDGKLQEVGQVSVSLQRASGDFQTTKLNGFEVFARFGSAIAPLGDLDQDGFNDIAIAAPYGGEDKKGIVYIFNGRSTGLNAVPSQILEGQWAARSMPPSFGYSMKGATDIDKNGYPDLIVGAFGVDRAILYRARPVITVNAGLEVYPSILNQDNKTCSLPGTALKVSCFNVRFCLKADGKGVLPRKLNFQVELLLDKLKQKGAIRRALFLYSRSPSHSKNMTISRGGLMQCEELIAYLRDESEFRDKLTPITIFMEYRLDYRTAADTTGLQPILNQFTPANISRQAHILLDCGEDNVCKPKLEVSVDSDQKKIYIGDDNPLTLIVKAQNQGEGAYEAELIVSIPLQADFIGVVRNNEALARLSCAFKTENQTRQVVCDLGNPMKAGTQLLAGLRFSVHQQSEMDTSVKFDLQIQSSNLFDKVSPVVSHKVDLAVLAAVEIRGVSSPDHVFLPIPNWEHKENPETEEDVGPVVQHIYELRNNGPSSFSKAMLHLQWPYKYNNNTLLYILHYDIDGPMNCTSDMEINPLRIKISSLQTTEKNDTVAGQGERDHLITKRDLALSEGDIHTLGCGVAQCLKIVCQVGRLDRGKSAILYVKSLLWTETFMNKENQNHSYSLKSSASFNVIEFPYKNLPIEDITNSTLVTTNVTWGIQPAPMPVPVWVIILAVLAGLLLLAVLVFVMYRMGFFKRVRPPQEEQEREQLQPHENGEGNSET
T1 sequence (P05106 27-788): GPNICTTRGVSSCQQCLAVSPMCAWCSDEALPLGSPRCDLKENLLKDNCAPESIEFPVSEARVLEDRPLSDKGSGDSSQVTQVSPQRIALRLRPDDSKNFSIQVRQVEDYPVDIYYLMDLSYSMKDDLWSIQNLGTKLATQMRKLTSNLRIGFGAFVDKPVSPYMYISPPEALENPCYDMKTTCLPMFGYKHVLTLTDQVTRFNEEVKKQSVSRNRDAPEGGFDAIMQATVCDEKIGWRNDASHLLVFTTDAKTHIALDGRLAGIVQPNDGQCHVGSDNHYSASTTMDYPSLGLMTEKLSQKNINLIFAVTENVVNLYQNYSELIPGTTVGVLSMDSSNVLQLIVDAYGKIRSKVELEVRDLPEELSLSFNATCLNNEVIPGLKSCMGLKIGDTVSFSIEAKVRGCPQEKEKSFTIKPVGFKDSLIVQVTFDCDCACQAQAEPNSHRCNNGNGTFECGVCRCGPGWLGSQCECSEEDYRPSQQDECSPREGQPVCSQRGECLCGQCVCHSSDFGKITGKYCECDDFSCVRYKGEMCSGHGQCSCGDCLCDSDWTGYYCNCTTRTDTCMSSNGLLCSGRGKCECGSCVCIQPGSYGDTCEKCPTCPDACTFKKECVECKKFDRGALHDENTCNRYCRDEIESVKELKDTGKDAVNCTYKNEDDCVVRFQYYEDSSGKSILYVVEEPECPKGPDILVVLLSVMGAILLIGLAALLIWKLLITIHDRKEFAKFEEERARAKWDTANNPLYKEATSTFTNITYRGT
T5 sequence (P06756 31-1048): as the sequence (P06756 31-1048) above
T5 sequence (P18564 22-788): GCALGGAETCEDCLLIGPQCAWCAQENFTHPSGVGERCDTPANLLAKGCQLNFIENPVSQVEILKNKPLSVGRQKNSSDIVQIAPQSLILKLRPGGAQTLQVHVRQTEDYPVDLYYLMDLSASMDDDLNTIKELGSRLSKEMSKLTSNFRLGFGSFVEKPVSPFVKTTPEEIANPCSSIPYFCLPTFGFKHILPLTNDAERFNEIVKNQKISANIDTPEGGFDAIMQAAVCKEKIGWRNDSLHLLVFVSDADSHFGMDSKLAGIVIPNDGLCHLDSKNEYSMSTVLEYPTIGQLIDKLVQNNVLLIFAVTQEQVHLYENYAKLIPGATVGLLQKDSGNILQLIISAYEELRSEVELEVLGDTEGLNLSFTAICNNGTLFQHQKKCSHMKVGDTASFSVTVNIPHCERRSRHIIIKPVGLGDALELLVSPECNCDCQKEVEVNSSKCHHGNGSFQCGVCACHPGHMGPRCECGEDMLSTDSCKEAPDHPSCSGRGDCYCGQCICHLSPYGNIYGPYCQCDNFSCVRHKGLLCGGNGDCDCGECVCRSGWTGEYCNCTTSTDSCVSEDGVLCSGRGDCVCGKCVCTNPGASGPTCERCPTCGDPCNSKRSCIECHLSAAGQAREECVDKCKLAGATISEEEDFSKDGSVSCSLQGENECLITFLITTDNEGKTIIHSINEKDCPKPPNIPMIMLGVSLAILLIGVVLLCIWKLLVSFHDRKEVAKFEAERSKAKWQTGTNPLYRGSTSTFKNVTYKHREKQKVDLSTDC
T4 sequence (P06756 31-1048): as the sequence (P06756 31-1048) above
T4 sequence (P26012 43-769): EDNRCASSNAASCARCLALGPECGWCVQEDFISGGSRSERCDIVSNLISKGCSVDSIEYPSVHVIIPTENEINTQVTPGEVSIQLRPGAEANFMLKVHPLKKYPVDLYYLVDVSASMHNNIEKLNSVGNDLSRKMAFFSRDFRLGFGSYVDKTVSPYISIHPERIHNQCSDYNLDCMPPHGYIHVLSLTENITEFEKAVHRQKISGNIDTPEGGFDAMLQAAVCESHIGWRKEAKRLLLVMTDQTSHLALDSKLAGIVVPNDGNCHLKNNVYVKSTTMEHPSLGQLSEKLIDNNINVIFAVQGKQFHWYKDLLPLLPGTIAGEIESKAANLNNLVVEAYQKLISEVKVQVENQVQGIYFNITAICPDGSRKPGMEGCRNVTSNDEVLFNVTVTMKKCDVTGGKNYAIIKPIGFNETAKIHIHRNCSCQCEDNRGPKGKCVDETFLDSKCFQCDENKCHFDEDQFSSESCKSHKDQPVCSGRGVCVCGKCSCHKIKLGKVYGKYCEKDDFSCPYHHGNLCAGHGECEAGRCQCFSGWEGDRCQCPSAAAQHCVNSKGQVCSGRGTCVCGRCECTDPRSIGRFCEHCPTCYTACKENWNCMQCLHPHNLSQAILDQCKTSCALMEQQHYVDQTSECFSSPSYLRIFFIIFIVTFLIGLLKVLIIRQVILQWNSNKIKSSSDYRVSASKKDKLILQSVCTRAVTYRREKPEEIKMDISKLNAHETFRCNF
T2 sequence (P06756 31-1048): as the sequence (P06756 31-1048) above
T2 sequence (P18084 24-799): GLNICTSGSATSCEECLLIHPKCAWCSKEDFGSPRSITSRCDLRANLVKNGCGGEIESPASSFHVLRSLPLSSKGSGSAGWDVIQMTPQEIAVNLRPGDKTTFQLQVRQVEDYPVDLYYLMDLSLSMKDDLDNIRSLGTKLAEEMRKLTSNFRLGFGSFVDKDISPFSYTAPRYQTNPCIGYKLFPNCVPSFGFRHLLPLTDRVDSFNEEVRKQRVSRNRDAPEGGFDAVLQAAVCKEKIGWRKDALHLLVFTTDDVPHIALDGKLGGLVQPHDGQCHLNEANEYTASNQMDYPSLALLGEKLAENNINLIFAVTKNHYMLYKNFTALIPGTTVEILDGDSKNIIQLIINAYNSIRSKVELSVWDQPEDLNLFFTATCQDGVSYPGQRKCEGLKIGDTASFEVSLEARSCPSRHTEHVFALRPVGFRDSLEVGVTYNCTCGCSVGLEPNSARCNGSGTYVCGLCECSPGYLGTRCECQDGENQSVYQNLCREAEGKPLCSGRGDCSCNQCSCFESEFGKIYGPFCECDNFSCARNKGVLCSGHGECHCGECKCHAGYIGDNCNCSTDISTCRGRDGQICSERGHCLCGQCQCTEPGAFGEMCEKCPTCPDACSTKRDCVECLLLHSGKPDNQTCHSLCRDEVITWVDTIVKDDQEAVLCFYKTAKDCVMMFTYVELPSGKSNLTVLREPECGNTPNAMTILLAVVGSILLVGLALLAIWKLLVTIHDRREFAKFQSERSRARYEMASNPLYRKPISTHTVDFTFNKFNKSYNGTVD

The term kinetic solubility denotes the concentration staying in solution when a stock, usually in DMSO, is diluted into the medium. As for `CCc1cc(C)nn1-c1cccc(C(CC(=O)O)CN2CC[C@@H](CCc3ccc4c(n3)NCCC4)C2)c1` (stereo partly drawn) [Example 3, 3-(3-(5-Ethyl-3-methyl-1H-pyrazol-1-yl)phenyl)-4-((R)-3-(2-(5,6,7,8-tetrahyrdro-1,8-naphthyridin-2-yl)ethyl)pyrrolidin-1-yl)butanoic acid], the IC50 is 1000 nM in series [1]; 126 nM in series [2]; 6.31 nM in series [3]; 20 nM in series [5]; 7.94 nM in series [6]. The same molecule registered a kinetic solubility in series [4] of 276 µM (≈ 138 µg/mL).
As to `O=C(O)CC(CN1CC[C@@H](CCc2ccc3c(n2)NCCC3)C1)c1cccc(-n2cccn2)c1` (stereo partly drawn) [Example 4, 3-(3-(1H-Pyrazol-1-yl)phenyl)-4-((R)-3-(2-(5,6,7,8-tetrahydro-1,8-naphthyridin-2-yl)ethyl)pyrrolidin-1-yl)butanoic acid], in series [4], the kinetic solubility turned out to be 388 µM (≈ 178 µg/mL).
Regarding `CCc1cc(CC)n(-c2cccc(C(CC(=O)O)CN3CC[C@@H](CCc4ccc5c(n4)NCCC5)C3)c2)n1` (stereo partly drawn) [Example 5, 3-(3-(3,5-Diethyl-1H-pyrazol-1-yl)phenyl)-4-((R)-3-(2-(5,6,7,8-tetrahydro-1,8-naphthyridin-2-yl)ethyl)pyrrolidin-1-yl)butanoic acid], the IC50 in series [1] is 794 nM; in series [2], 251 nM; in series [3] it was 15.8 nM; in series [5], 39.8 nM; in series [6], 7.94 nM. Also, the kinetic solubility in series [4] was 470 µM (≈ 242 µg/mL).
Turning to `Cc1nn(-c2cccc(C(CC(=O)O)CN3CC[C@@H](CCc4ccc5c(n4)NCCC5)C3)c2)c(C)c1F` (stereo partly drawn) [Example 6, 3-(3-(4-Fluoro-3,5-dimethyl-1H-pyrazol-1-yl)phenyl)-4-((R)-3-(2-(5,6,7,8-tetrahydro-1,8-naphthyridin-2-yl)ethyl)pyrrolidin-1-yl)butanoic acid], the IC50 in series [1] was 1580 nM; in series [2], 251 nM; in series [3] it was 20 nM; in series [5], 50.1 nM; in series [6], 7.94 nM. The same molecule showed a solubility (kinetic) in series [4] of 437 µM (≈ 221 µg/mL).
